Test results as given in patent US20220288207A1, “PHOTO INDUCED CONTROL OF PROTEIN DESTRUCTION” (Beth Israel Deaconess Medical Center, Inc., priority 2019, published 2022).
“Also recorded” adds a separate entry of the source.

Columns and labels:
[1] = Uncaging (photolysis) by UVA irradiation in vitro, UV-VIS absorption / UPLC-MS analysis; assay type: physicochemical; conditions: 1 mM, UVA 365 nm, time course
Method: HPLC spectra were acquired using an Agilent 1200 Series system with DAD detector for all the intermediates and Opto-PROTACs below. Chromatography was performed on a 2.1×150 mm Zorbax 300SB-C18 5 μm column with water containing 0.1% formic acid as solvent A and acetonitrile containing 0.1% formic acid as solvent B at a flow rate of 0.4 ml/min. The gradient program was as follows: 1% B (0-1 min), 1-99% B (1-4 min), and 99% B (4-8 min). High-resolution mass spectra (FIRMS) data were acquired in positive ion mode using an Agilent G1969A API-TOF with an electrospray ionization (ESI) source. Nuclear Magnetic Resonance (NMR) spectra were acquired on a Bruker DRX-600 spectrometer with 600 MHz for proton (^1H NMR) and 151 MHz for carbon (^13C NMR); chemical shifts are reported in (δ). Preparative HPLC was performed on Agilent Prep 1200 series with UV detector set to 254 nm. Samples were injected onto a Phenomenex Luna 250×30 mm, 5 μm, C18 column at room temperature. The flow rate was 40 ml/min. A linear gradient was used with 10% of acetonitrile (A) in H2O (with 0.1% TFA) (B) to 100% of acetonitrile (A). HPLC was used to establish the purity of target compounds. All final compounds had >95% purity using the HPLC methods described above.
(§1) UV-Vis spectrometry was performed on a NanoDrop-2000 UV-Visible Spectrophotometer. Pomalidomide, opto-pomalidomide, dBET1, opto-dBET1, dALK and opto-dALK were dissolved in DMSO and diluted to indicated concentration, followed by UVA irradiation for indicated duration of time. Then the samples were subjected to UV-Vis spectrometry analysis. Pomalidomide and opto-pomalidomide mixture solutions were made with the indicated ratio. Absorption values at 364 nm were measured to draw standard curve. dBET1 and opto-dBET1 mixture solution were made with the indicated ratios. Absorption values at 340 nm were measured to draw standard curve. dALK and opto-dALK mixture solution were made with indicated ratio. Absorption values at 370 nm were measured to draw standard curve.

NCI-H2228 cells = test: CCK-8 cell viability assay, NCI-H2228 cells; assay type: cell-based
Method: (§2) Human embryonic kidney 293T (HEK293T) cells and HEK293FT were maintained in Dulbecco's Modified Eagle's Medium (DMEM) containing 10% fetal bovine serum (FBS), 100 Units of penicillin and […] streptomycin. MM.1S, MT2, C4-2, NCI-H2228 and NCI-H3122 cells were cultured in RPMI1640 containing 10% fetal bovine serum (FBS), 100 Units of penicillin and 100 μg/ml streptomycin. 293FT^CRBN+/+, 293FT^CRBN+/+ , MM.1S^CRBN+/+ and MM.1S^CRBN−/− cells were provided Dr. William G. Kaelin (Dana-Farber Cancer Institute). For UVA irradiation, cells were pretreated with opto-PROTACs for 2-4 hours, and then subjected to UVA irradiation for indicated durations.
(§3) Cell in 96-well plates were incubated with 10 ul/well of CCK-8 solution and incubated for 2 hours, followed by the measurement of optical density using a microplate reader with a 450 nm filter (O.D. 450).

NCI-H3122 cells = test: CCK-8 cell viability assay, NCI-H3122 cells; assay type: cell-based
Method: as §2, §3

BRD2 and BRD3 = test: In vivo ubiquitination assay of BRD2 and BRD3 by CRBN in HEK293T cells (Ni-NTA pull down); assay type: cell-based, Human
Method: (§4) Denatured in vivo ubiquitination assays were performed as described in H. Inuzuka et al., Cell 150 (2012): 179, hereby incorporated by reference in its entirety and specifically in relation to ubiquitination assays. Briefly, HEK293T cells were transfected with Flag-CRBN, His-ubiquitin and HA-IKZF1 or GFP-BRD2 or GFP-BRD3. 24 hours after transfection, pomalidomide, opto-pomalidomide, dBET1 or opto-dBET1 were added to the cell culture together with 10 μM MG132 for 12 hours and cells were harvested in denatured buffer A (6 M guanidine-HCl, pH 8.0, 0.1 M Na2HPO4/NaH2PO4, 10 mM imidazole). After sonication, the ubiquitinated proteins were purified by incubation with Ni-NTA matrices for 3 hours at room temperature. The pull-down products were washed sequentially twice in buffer A, twice in buffer ANTI mixture (buffer A: buffer TI=1:3) and once in buffer TI (25 mM Tris-HCl, pH 6.8, 20 mM imidazole). The poly-ubiquitinated proteins were separated by SDS-PAGE for immunoblot analysis.

BRD3/4 = BRD3/4 degradation, immunoblot of 293FT cells; assay type: cell-based, Human
Method: as §2
(§5) Cells were lysed in EBC lysis buffer (50 mM Tris pH 7.5, 120 mM NaCl, 0.5% NP-40), supplemented with protease inhibitors (cOmplete Mini, Roche) and phosphatase inhibitors (phosphatase inhibitor cocktail set I and II, Calbiochem). The protein concentrations of the lysates were measured using the Bio-Rad protein assay reagent on a Beckman Coulter DU-800 spectrophotometer. The lysates were then resolved by sodium dodecylsulfate-polyacrylamide gel ectrophoresis (SDS-PAGE) and immunoblotted with indicated antibodies. For immunoprecipitation, 1 mg lysates were incubated with the appropriate sepharose beads for 4 h at 4° C. Immuno-complexes were washed four times with NETN lysis buffer (20 mM Tris, pH 8.0, 100 mM NaCl, 1 mM EDTA and 0.5% NP-40) before being resolved by SDS-PAGE and immunoblotted with indicated antibodies.

HEK293FT cells = test: CCK-8 cell viability assay, HEK293FT cells; assay type: cell-based, Human
Method: as §2, §3

C4-2 cells = test: CCK-8 cell viability assay, C4-2 cells; assay type: cell-based
Method: as §2, §3

[2] = UV-VIS absorption spectrum; assay type: physicochemical; conditions: in DMSO
Method: as §1

CRBN and IKZF1 = target: T1, CRBN and IKZF1 (Homo sapiens, UniProt Q13422+Q96SW2); test: CRBN-IKZF1 interaction, Flag-IP and immunoblot in HEK293T cells; assay type: cell-based; conditions: without UVA irradiation, 10 μM MG132 12 hours
T1 construct: expressed in transfected cells; host or cells: HEK293T
Method: (§6) MM.1S, MT2, C4-2, NCI-H2228 and NCI-H3122 cells were cultured in RPMI1640 containing 10% fetal bovine serum (FBS), 100 Units of penicillin and 100 μg/ml streptomycin. […] For UVA irradiation, cells were pretreated with opto-PROTACs for 2-4 hours, and then subjected to UVA irradiation for indicated durations.
as §5

IKZF1/3 = IKZF1/3 degradation, immunoblot of MM1S cells; assay type: cell-based; conditions: MM1S-CRBN+/+ vs. MM1S-CRBN−/− cells, 12 hours, without UVA irradiation; opto-drug up to 10-fold excess
Method: as §6, §5

MM1S cells = test: CCK-8 cell viability assay, MM1S cells; assay type: cell-based; conditions: MM1S-CRBN+/+ and MM1S-CRBN−/− cells, 72 hours, without UVA irradiation
Method: as §2, §3

IKZF1 = IKZF1 (Homo sapiens, UniProt Q13422+Q96SW2); test: In vivo ubiquitination assay of IKZF1 by CRBN in HEK293T cells (Ni-NTA pull down); assay type: cell-based; parameters: expressed in transfected cells; host or cells: HEK293T; conditions: without UVA irradiation
Method: as §4, with “Briefly,” for “Denatured in vivo ubiquitination assays were performed as described in H. Inuzuka et al., Cell 150 (2012): 179, hereby incorporated by reference in its entirety and specifically in relation to ubiquitination assays. Briefly,”

[3] = 72 hours, without UVA irradiation
[4] = UVA irradiation (365 nm) 15 minutes
[5] = 293FT-CRBN+/+ vs. 293FT-CRBN−/− cells, 12 hours, without UVA irradiation
[6] = HEK293FT (293FT-CRBN+/+ and CRBN−/−) cells, without UVA irradiation

Sequence of IKZF1 (Q13422 whole entry): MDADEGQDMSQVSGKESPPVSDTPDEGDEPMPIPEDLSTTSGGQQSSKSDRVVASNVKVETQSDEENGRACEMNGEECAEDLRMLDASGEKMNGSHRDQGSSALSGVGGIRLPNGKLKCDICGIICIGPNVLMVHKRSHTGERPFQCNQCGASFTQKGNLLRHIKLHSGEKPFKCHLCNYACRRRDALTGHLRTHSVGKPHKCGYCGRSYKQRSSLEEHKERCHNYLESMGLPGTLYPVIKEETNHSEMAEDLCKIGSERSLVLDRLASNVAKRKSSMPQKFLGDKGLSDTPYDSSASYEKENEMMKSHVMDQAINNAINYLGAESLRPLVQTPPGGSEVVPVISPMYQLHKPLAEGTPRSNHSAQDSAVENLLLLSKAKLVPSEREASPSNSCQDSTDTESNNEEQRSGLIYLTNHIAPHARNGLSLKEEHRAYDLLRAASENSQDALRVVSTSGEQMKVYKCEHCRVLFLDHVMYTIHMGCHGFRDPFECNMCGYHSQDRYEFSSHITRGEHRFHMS
Sequence of IKZF1 (Q96SW2 whole entry): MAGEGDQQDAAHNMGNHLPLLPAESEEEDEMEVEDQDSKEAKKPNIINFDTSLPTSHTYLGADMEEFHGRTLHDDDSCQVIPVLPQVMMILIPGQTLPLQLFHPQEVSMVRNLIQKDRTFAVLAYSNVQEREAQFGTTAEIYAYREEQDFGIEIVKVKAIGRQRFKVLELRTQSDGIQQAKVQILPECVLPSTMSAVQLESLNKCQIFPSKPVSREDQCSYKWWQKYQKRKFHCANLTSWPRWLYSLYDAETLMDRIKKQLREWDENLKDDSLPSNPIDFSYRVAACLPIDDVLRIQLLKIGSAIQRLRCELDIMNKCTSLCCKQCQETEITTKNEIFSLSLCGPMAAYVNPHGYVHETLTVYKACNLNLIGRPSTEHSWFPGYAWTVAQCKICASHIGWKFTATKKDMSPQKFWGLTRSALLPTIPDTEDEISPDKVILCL
Sequence of IKZF1 (Q16531 whole entry partner): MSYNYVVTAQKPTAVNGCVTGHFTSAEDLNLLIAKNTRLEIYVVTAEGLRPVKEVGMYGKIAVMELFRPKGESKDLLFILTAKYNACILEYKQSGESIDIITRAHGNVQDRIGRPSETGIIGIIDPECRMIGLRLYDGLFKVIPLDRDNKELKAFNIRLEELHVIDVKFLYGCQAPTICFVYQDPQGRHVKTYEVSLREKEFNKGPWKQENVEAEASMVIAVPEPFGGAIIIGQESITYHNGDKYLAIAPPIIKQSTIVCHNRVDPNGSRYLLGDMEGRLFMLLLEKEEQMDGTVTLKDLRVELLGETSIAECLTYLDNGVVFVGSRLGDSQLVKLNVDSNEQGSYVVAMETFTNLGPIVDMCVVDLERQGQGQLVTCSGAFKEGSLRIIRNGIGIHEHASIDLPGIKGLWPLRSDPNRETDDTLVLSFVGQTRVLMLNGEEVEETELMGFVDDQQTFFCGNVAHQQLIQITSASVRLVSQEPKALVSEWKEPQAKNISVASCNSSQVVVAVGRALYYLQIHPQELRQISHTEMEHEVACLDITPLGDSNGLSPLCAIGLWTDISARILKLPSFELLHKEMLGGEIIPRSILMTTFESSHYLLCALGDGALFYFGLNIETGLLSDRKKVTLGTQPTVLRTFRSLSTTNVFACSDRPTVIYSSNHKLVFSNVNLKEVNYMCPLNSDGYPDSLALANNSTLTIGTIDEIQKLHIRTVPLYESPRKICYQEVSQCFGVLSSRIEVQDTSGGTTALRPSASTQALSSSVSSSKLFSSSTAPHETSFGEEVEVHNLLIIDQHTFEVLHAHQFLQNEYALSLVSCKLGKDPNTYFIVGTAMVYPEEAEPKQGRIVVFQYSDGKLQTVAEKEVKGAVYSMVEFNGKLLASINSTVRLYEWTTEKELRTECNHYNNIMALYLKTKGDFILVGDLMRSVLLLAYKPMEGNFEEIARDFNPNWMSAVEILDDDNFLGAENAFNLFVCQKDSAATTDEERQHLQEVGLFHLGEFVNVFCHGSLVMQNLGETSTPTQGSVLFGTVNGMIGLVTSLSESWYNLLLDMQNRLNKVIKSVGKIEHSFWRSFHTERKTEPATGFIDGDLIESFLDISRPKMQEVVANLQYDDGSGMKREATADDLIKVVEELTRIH
T1 sequence (Q96SW2 whole entry): as the sequence (Q96SW2 whole entry) above
T1 sequence (Q13422 whole entry): as the sequence (Q13422 whole entry) above
T1 sequence (Q16531 whole entry partner): as the sequence (Q16531 whole entry partner) above

COc1cc(COC(=O)N2C(=O)CCC(N3C(=O)c4cccc(NCCNC(=O)CN5CCC(c6cc(OC(C)C)c(Nc7ncc(Cl)c(Nc8ccccc8S(=O)(=O)C(C)C)n7)cc6C)CC5)c4C3=O)C2=O)c([N+](=O)[O-])cc1OC (centres unmarked) [opto-dALK]
uncaging (photolysis) by UVA irradiation in vitro [1]: efficiently uncaged by UVA irradiation in vitro
cell proliferation (CCK-8) (NCI-H2228 cells; [3]): inefficient in inhibiting the proliferation of H2228 (C) or NCI-3122 (D)
cell proliferation (CCK-8) (NCI-H2228 cells; [4]): required prior uncaging by UVA irradiation; also recorded: inhibits H2228 (E) or NCI-3122 (F) cell proliferation in a dose-dependent manner
cell proliferation (CCK-8) (NCI-H3122 cells; [3]): inefficient in inhibiting the proliferation of H2228 (C) or NCI-3122 (D)
cell proliferation (CCK-8) (NCI-H3122 cells; [4]): required prior uncaging by UVA irradiation; also recorded: inhibits H2228 (E) or NCI-3122 (F) cell proliferation in a dose-dependent manner

Cc1sc2c(c1C)C(c1ccc(Cl)cc1)=N[C@@H](CC(=O)NCCCCNC(=O)COc1cccc3c1C(=O)N(C1CCC(=O)NC1=O)C3=O)c1nnc(C)n1-2 (some centres unmarked) [dBET1, reference compound]
ubiquitination of BRD2 and BRD3 by CRBN (BRD2 and BRD3; without UVA irradiation): function as a molecular linker between a protein targeting moiety that recruits bromodomain family members (BRD2/3) (JQ1 derived) and CRBN-mediated ubiquitination
degradation of BRD3/4 (BRD3/4; [5]): degraded BRD 3/4 in a CRBN-dependent manner
cell proliferation (CCK-8) (HEK293FT cells; [6]): inhibited cell proliferation in a dose-dependent manner; also recorded: inhibits cell proliferation in 293FT-CRBN^+/+ but not 293FT-CRBN^−/− cells
cell proliferation (CCK-8) (C4-2 cells; without UVA irradiation): inhibited cell proliferation in a dose-dependent manner

COc1cc(COC(=O)N2C(=O)CCC(N3C(=O)c4cccc(OCC(=O)NCCCCNC(=O)C[C@@H]5N=C(c6ccc(Cl)cc6)c6c(sc(C)c6C)-n6c(C)nnc65)c4C3=O)C2=O)c([N+](=O)[O-])cc1OC (some centres unmarked) [opto-dBET1]
uncaging (photolysis) by UVA irradiation in vitro [1]: efficiently uncaged by UVA irradiation in vitro
ubiquitination of BRD2 and BRD3 by CRBN (BRD2 and BRD3; UVA irradiation (365 nm) 15 min): regained its ability to promote ubiquitination of BRDs in cells
ubiquitination of BRD2 and BRD3 by CRBN (BRD2 and BRD3; without UVA irradiation): incapable of guiding the ubiquitination of BRD2 and BRD3
degradation of BRD3/4 (BRD3/4; [5]): largely inert and incapable of degrading BRD3/4
degradation of BRD3/4 (BRD3/4; HEK293FT cells, UVA irradiation (365 nm) 5 or 15 minutes): leading to the degradation of BRD3/4
cell proliferation (CCK-8) (HEK293FT cells; [6]): relatively less toxic; also recorded: did not inhibit cell proliferation in 293FT-CRBN^+/+ and 293FT-CRBN^−/− cells
cell proliferation (CCK-8) (HEK293FT cells; HEK293FT cells, UVA irradiation (365 nm) 15 minutes): could be activated by UVA irradiation to suppress cell proliferation; also recorded: inhibits HEK293FT (J) and C4-2 (K) cell proliferation in a dose-dependent manner
cell proliferation (CCK-8) (C4-2 cells; [4]): could be activated by UVA irradiation to suppress cell proliferation; also recorded: inhibits HEK293FT (J) and C4-2 (K) cell proliferation in a dose-dependent manner
cell proliferation (CCK-8) (C4-2 cells; without UVA irradiation): relatively less toxic

Nc1cccc2c1C(=O)N(C1CCC(=O)NC1=O)C2=O (centres unmarked) [pomalidomide, reference compound]
maximum in absorption of UV-VIS absorption spectrum [2]: 390 nm
interaction between CRBN and IKZF1 (CRBN and IKZF1): bound both CRBN and IKZF1/3
degradation of IKZF1/3 (IKZF1/3): induced IKZF1/3 degradation in a CRBN-dependent manner
cell proliferation (CCK-8) (MM1S cells): reduces MM1S cell proliferation in a CRBN-dependent manner
ubiquitination of IKZF1 by CRBN (IKZF1): subsequently transfer the ubiquitin chain onto the target proteins, IKZFs
